Publication PMC9180949, “Design, Spectroscopy, and Assessment of Cholinesterase Inhibition and Antimicrobial Activities of Novel Coumarin–Thiadiazole Hybrids” (International Journal of Molecular Sciences, 2022)

What was measured:
[1] = biological target: T1, BuChE; butyrylcholinesterase (EC 3.1.1.8) from equine serum (Equus caballus, UniProt P81908); assay: Ellman assay, absorbance at […] nm; type: biochemical; conditions: read-out: BuChE / IC50 (μM) ± SD *
T1 construct: gene BCHE; commercial enzyme from equine serum, Sigma-Aldrich, EC 3.1.1.8
T1 sequence (P81908 whole entry): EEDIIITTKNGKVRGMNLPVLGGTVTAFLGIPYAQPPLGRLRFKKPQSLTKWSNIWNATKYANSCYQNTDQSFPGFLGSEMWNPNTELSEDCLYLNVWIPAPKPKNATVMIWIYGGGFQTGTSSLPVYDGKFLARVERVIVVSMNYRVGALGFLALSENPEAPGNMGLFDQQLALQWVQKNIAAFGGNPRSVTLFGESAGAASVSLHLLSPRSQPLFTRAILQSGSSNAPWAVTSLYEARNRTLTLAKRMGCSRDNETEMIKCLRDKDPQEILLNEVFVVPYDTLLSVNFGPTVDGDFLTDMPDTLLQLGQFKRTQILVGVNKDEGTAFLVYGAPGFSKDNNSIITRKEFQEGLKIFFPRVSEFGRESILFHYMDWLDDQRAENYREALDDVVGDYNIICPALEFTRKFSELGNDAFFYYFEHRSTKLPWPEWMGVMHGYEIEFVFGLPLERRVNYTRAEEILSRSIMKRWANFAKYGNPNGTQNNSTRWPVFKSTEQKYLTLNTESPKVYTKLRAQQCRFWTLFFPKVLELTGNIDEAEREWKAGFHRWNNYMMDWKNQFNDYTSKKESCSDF

[2] = biological target: T2, AChE; acetylcholinesterase (E.C. 3.1.1.7) from Electrophorus electricus (Electrophorus electricus, UniProt O42275); assay: Ellman assay, absorbance at […] nm; type: biochemical; conditions: read-out: AChE / IC50 (μM) ± SD *
T2 construct: commercial enzyme from Sigma-Aldrich, EC 3.1.1.7, purified from electric eel
T2 sequence (O42275 24-633): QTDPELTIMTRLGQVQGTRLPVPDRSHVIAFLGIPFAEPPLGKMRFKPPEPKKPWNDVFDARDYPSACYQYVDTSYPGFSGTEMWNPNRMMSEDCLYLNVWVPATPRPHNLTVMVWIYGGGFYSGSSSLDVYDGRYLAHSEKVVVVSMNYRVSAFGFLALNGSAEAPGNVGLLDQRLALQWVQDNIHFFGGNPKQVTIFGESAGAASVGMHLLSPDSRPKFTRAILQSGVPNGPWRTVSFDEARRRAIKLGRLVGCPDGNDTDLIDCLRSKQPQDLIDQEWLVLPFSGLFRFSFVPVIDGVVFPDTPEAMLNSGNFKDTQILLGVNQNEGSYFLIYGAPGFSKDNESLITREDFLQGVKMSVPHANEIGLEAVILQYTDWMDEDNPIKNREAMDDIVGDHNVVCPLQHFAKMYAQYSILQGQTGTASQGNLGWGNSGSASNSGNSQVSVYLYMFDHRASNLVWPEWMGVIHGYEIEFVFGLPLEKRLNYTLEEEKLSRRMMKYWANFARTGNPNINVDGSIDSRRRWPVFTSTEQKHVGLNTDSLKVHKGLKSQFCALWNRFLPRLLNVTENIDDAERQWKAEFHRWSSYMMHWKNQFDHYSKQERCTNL

## CCN(CC)c1ccc2cc(-c3nnc(N)s3)c(=O)oc2c1 [compound 1, coumarin–thiadiazole hybrid 1]
[1]
  IC50: 0.191 ± 0.024 µM
[2]
  IC50: 0.184 ± 0.011 µM

## COc1cccc2cc(-c3nnc(N)s3)c(=O)oc12 [compound 2, coumarin–thiadiazole hybrid 2]
[1]
  IC50: 0.198 ± 0.039 µM
[2]
  IC50: 0.213 ± 0.009 µM

## CCOc1cccc2cc(-c3nnc(N)s3)c(=O)oc12 [compound 3, coumarin–thiadiazole hybrid 3]
[1]
  IC50: 0.295 ± 0.024 µM
[2]
  IC50: 0.152 ± 0.003 µM

## Nc1nnc(-c2cc3cc(Cl)ccc3oc2=O)s1 [compound 4, coumarin–thiadiazole hybrid 4]
[1]
  IC50: 0.205 ± 0.014 µM
[2]
  IC50: 0.211 ± 0.01 µM

## Nc1nnc(-c2cc3cc(Br)ccc3oc2=O)s1 [compound 5, coumarin–thiadiazole hybrid 5]
[1]
  IC50: 0.261 ± 0.015 µM
[2]
  IC50: 0.183 ± 0.018 µM

## Nc1nnc(-c2cc3cc([N+](=O)[O-])ccc3oc2=O)s1 [compound 6, coumarin–thiadiazole hybrid 6]
[1]
  IC50: 0.166 ± 0.022 µM
[2]
  IC50: 0.198 ± 0.016 µM

## COc1cc([N+](=O)[O-])cc2cc(-c3nnc(N)s3)c(=O)oc12 [compound 7, coumarin–thiadiazole hybrid 7]
[1]
  IC50: 0.494 ± 0.024 µM
[2]
  IC50: 0.159 ± 0.015 µM

## Nc1nnc(-c2cc3ccccc3oc2=O)s1 [compound 8, coumarin–thiadiazole hybrid 8]
[1]
  IC50: 0.392 ± 0.024 µM
[2]
  IC50: 0.199 ± 0.003 µM

## Nc1nnc(-c2cc3cc(O)ccc3oc2=O)s1 [compound 9, coumarin–thiadiazole hybrid 9]
[1]
  IC50: 0.235 ± 0.034 µM
[2]
  IC50: 0.196 ± 0.022 µM

## Nc1nnc(-c2cc3ccc(O)cc3oc2=O)s1 [compound 10, coumarin–thiadiazole hybrid 10]
[1]
  IC50: 0.38 ± 0.01 µM
[2]
  IC50: 0.2 ± 0.012 µM

## Nc1nnc(-c2cc3cccc(O)c3oc2=O)s1 [compound 11, coumarin–thiadiazole hybrid 11]
[1]
  IC50: 0.202 ± 0.03 µM
[2]
  IC50: 0.165 ± 0.003 µM

## Nc1nnc(-c2cc3ccc(O)c(O)c3oc2=O)s1 [compound 12, coumarin–thiadiazole hybrid 12]
[1]
  IC50: 0.264 ± 0.017 µM
[2]
  IC50: 0.187 ± 0.015 µM
